Here are results for three compounds from US9534259B2, “DOT1 histone methyltransferases as a target for identifying therapeutic agents for leukemia” (The University of North Carolina at Chapel Hill, priority 2003, dated 2017).

“Also recorded” adds a separate entry of the source. Ends that are not written are not given here. Peptide text beside a SMILES is read from it. * marks the point of attachment. Cbz = O=C(OCc1ccccc1)*

Test [1] deals with hDOT1L binding to HeLa mono-nucleosomes. Put plainly: Gel mobility shift assay (mono-nucleosome binding) with competitor peptide. Also on record: species or system human. The conditions noted are these: HeLa mono-nucleosomes 1.5 μM. As for the experimental part: Different amount of recombinant hDOT1L proteins were incubated with HeLa mono-nucleosomes (1.5 μM) under the same conditions as those in the histone methyltransferase assay, except that SAM is omitted. Following incubation for 1 hour at 30° C., samples were resolved in a 1.8% agarose gel and visualized under UV by ethidium bromide staining.
We next examined mono-nucleosome binding of hDot1(1-416) and several of its truncation variants by gel mobility shift assays (GSMA). […] Consistent with this, we could detect strong, but apparently non-sequence specific, binding of hDOT1L(1-416) with DNA extracted from mono-nucleosomes. To further probe the nature of hDOT1L-nucleosome interaction, we used a 21-residue highly charged peptide, C-RS10, containing 10 tandem repeats of arginine and serine as a competitor in our nucleosome binding and HMTase assays.

In the next test the target is T1, hDOT1L Δ(376-390) (Homo sapiens, UniProt Q8TEK3, DEL376-390).
T1 construct: GST (N, cleaved yes); made in house; host or cells: E. coli
The test is described as follows: Histone methyltransferase assay with peptide competition. In kind it is biochemical. The conditions noted are these: 1.5, 15 or 150 μM peptide; oligo-nucleosome substrate; FIG. 6D lanes 5-8. As to the method: (§1) Histone methyltransferase assay was performed using established methods (Wang, et al. (2001) Science 293:853-857). Oligo-nucleosomes purified from HeLa cells or chicken blood cells were quantified and equal concentrations were used in each assay. Briefly, recombinant hDOT1L proteins (0.75 μM) were incubated with oligo-nucleosomes (1.5 μM) in reactions containing 20 mM Tris-HCl (pH 8.0), 4 mM EDTA, 1 mM PMSF, 0.5 mM DTT, and 0.5 μL ^3H-SAM (15 Ci/mM; NEN™ Life Science Products) for 1 hour at 30° C. For peptide competition, 1.5 μM, 15 μM, or 150 μM of positively charged C-RS10 peptide ([…] SEQ ID NO:20) were added to reactions. Reactions were stopped by addition of 7 μL of 5×SDS loading buffer and proteins were separated in an 18% SDS-PAGE. Following stain and destain of COMMASSIE® Blue, gels were treated with Rapid Autoradiography Enhancer (NEN™ Life Science Products, Boston Mass.) for 40 minutes, dried, and exposed to X-ray films. For quantitation, gel slices were excised and counted with scintillation counting. Two independent experiments were performed at the same time and average ^3H (CPM) values were used in the figures.

The target in a further test is T2, hDOT1L(1-416) (Homo sapiens, UniProt Q8TEK3).
T2 construct: The plasmid expressing the first 416 residues of hDOT1L, pGEX-KG/hDOT1L(1-416); GST (N, cleaved yes); made in house; host or cells: E. coli
The test is described as above. In kind it is biochemical. The conditions noted are these: 1.5, 15 or 150 μM peptide; oligo-nucleosome substrate; FIG. 6D lanes 1-4. As to the method: as §1

Test [2] deals with proteasome (stability of ubiquitinated FLAG-Tat and FLAG-hDOT1L). The test is described as follows: In vivo ubiquitination assay in 293T cells with proteasome inhibitor. The test is classed as cell-based, human. The conditions noted are these: HA-Ub co-expressed. Also on record: dose or concentration left out as unconfirmed. As for the experimental part:
pcDNA3b-FLAG®-hDOT1L and pcDNA3b-FLAG®-Tat were transfected to 293T cells with or without pHA-Ubiquitin (Ub) by using FUGENE™ 6 transfection reagent (Roche Diagnostics, Indianapolis, Ind.). Twenty-four hours after transfection, MG132 was added at the final concentration of […], and the cells were cultured for […]. Cells were then lysed with lysis buffer (50 mM Tris-HCl, pH 7.5, 0.5 mM EDTA, 1% SDS, and 1 mM DTT), and boiled for 10 minutes before centrifugation at 14,000 rpm for 10 minutes. The supernatant was diluted by 10-fold with NP40 lysis buffer (50 mM Tris-HCl, pH 7.5, 150 mM NaCl, 0.1% NP40, 50 mM NaF, 10% glycerol, 1 mM DTT, and 1 mM PMSF), and incubated with […] of FLAG® (M2) antibody for 4 hours at 4° C. Protein G beads were then added and incubated further for one hour. The beads were washed three times with lysis buffer containing 0.5% of NP40 before eluting the protein with SDS sample buffer for SDS-PAGE analysis.
Protein ubiquitination is the major pathway for rapid protein degradation (Pickart (2001) Annu. Rev. Biochem 70:503-533). Toward this end, we asked whether hDOT1L is subjected to ubiquitination. We transfected 293T cells with a construct encoding FLAG®-hDOT1L with or without co-transfection of a construct encoding HA-tagged ubiquitin. […]

Test [3] has as its system CRM1-mediated nuclear export of hDOT1L NESs fused with EGFP. The test is classed as cell-based, human. To be noted: 20 nM, eight hours after treatment, U2OS cells, FIG. 10E. As for the experimental part:
To further characterize the nuclear export ability of the three NESs identified, it was determined whether the NESs were involved in active nuclear export mediated by the CRM1 (chromosomal region maintenance) pathway. CRM1 was initially identified as a S. pombe protein whose mutation affects higher order chromosome structure (Adachi and Yanagida (1989) J. Cell Biol. 108:1195-1207). Subsequent studies indicate that CRM1 is an export receptor for Leucine-rich nuclear export signals (Fornerod, et al. (1997) Cell 90:1051-1060; Ossareh-Nazari, et al. (1997) Science 278:141-144; Stade, et al. (1997) Cell 90:1041-1050). […] To investigate the effect of LMB treatment on the nuclear export ability of the NESs, U2OS cells were transfected with constructs encoding each of the three NESs fused with EGFP in the presence or absence of 20 nM of LMB. Eight hours after LMB treatment, green fluorescence was observed under a microscope in living cells.

T1 sequence (Q8TEK3 with tags, fused parts or gaps DEL376-390): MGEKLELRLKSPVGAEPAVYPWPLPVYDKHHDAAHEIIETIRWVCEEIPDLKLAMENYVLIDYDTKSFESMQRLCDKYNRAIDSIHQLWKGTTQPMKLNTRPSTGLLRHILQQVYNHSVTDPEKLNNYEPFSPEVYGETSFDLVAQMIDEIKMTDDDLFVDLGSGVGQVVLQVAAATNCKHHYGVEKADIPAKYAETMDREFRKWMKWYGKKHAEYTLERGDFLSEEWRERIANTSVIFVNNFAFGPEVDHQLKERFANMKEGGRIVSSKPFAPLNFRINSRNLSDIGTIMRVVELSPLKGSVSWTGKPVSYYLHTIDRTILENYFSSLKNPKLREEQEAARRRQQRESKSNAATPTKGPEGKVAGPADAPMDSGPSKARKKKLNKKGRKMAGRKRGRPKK
T2 sequence (Q8TEK3 1-416): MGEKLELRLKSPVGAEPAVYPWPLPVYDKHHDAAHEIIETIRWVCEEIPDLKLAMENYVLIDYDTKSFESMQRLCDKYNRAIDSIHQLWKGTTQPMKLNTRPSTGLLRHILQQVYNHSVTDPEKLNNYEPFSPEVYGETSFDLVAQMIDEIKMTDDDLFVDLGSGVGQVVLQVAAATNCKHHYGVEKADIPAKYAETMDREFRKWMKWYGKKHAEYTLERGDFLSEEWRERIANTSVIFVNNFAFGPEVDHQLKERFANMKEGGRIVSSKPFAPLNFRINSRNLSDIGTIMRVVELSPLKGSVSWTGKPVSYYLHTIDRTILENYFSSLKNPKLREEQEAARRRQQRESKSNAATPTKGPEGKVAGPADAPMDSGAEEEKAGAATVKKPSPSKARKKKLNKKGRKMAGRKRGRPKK

As for CRSRSRSRSRSRSRSRSRSRS, the “Effect of peptide on mono-nucleosome migration in GSMA” value in test [1] was “prevented mono-nucleosomes from entering the gel well”. For the same compound, the “HMTase activity of Δ(376-390) in presence of competitor peptide” value in the test with hDOT1L Δ(376-390) is listed as “effectively competed”. Also, the “HMTase activity of hDOT1L(1-416) in presence of competitor peptide” value with hDOT1L(1-416) is recorded as “effectively competed”.

On to `CC(C)C[C@@H](C=O)NC(=O)[C@H](CC(C)C)NC(=O)[C@H](CC(C)C)NC(=O)OCc1ccccc1` [MG132] (Cbz-Leu-Leu-Leu-aldehyde), for which the “Stabilization of ubiquitinated FLAG-hDOT1L” value in test [2] (FIG. 8A lanes 4 and 5) was “did not appear to stabilize”. Also, the “Stabilization of ubiquitinated Tat” value in test [2] (FIG. 8A lanes 6 and 7) is given as “successfully stabilized ubiquitinated Tat”.

For `CCC(=C/[C@H](C)C/C=C/C(C)=C/[C@@H](C)C(=O)[C@@H](C)[C@H](O)[C@@H](C)C/C(C)=C/C(=O)O)/C=C/[C@@H]1OC(=O)C=C[C@@H]1C` [LMB, Leptomycin B], the “Effect on nuclear export by NES1, NES2, NES3 fused with EGFP” value in test [3] is on record as “prevented nuclear export by all the three NESs; also recorded: can be blocked”.
